Where two headings read alike, the source gives them in different places.
What was measured:
Test in all cases: microbe, parasite or virus in culture
Assay type in all cases: cell-based, Hepatitis C virus (HCV)
[1] = tested on: HCV replicon 1AQ30D; conditions: Replicon Assay B
[2] = tested on: HCV replicon 1B; conditions: Replicon Assay B
[3] = tested on: HCV replicon 2B; conditions: Replicon Assay A
Method in brief: (§1)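 HCV replicon RNA levels were quantified by TaqMan RT-PCR after 3-day compound exposure (0.5% DMSO, 5% FBS). Cyclophilin RNA, co-amplified in the same reaction, served as endogenous control; Ct values were converted to RNA amounts using linear regression standard curves.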

[4] = tested on: HCV replicon 1AY93H; conditions: Replicon Assay A
Method in brief: as §1

[5] = tested on: HCV replicon 1A; conditions: Replicon Assay A
Method in brief: as §1

[6] = Hepatitis C virus, read-out: 1A Q30D IC50 (nM), replicon 1AQ30D
[7] = read-out: 1A Y93H IC50, replicon 1AY93H
[8] = Hepatitis C virus, read-out: 2B IC50 (nM), replicon 2B
[9] = Hepatitis C virus, read-out: 1A Y93H IC50 (nM), replicon 1AY93H
[10] = read-out: 2B IC50, HCV replicon 2B
[11] = read-out: 1A Y93H IC50, HCV replicon 1A Y93H
[12] = Hepatitis C virus, read-out: 1A Q30D IC50, HCV replicon 1A Q30D

Work on `COC(=O)N[C@H](C(=O)N1CCC[C@H]1c1ncc(-c2cc(F)c3c(c2)OC(c2ccc(OC)s2)n2c-3cc3cc(-c4cnc([C@@H]5CCCN5C(=O)[C@@H](NC(=O)OC)C(C)C)[nH]4)ccc32)[nH]1)C(C)C` (single isomer, unassigned) [Compound 20] yielded an IC50 [1, 6] of 0.38 nM, an IC50 ([2]; Hepatitis C virus, replicon 1B) of 0.0011 nM and an IC50 ([3]; read-out: 2B IC50, replicon 2B) of 0.051 nM. It also gave an IC50 [4, 7] of 0.014 nM.

Compound `COCC(C)(C)c1ccc(C2Oc3cc(-c4cnc([C@@H]5CCCN5C(=O)[C@@H](NC(=O)OC)C(C)C)[nH]4)cc(F)c3-c3cc4cc(-c5cnc([C@@H]6CCCN6C(=O)[C@@H](NC(=O)OC)C(C)C)[nH]5)ccc4n32)s1` (single isomer, unassigned) [Compound 399] has an IC50 [1, 6] of 0.292 nM, an IC50 ([5]; Hepatitis C virus, replicon 1A) of 0.0027 nM and an IC50 ([3]; read-out: 2B IC50, replicon 2B) of 0.274 nM. The IC50 [4, 7] was 0.0145 nM.

With `COC(=O)N[C@H](C(=O)N1CCC[C@H]1c1ncc(-c2cc(F)c3c(c2)OC(c2csc(C4CC4)c2)n2c-3cc3cc(-c4cnc([C@@H]5CCCN5C(=O)[C@@H](NC(=O)OC)C(C)C)[nH]4)ccc32)[nH]1)C(C)C` (single isomer, unassigned) [Compound 322] the IC50 [1, 6] was 0.82 nM, the IC50 [3, 8] was 0.29 nM and the IC50 [4, 7] was 0.0297 nM.

Work on `COC(=O)N[C@H](C(=O)N1CCC[C@H]1c1ncc(-c2cc(F)c3c(c2)OC(c2ccc(C4CC4)s2)n2c-3cc3cc(-c4cnc([C@@H]5CCCN5C(=O)[C@@H](NC(=O)OC)C(C)C)[nH]4)ccc32)[nH]1)C(C)C` (single isomer, unassigned) [Compound 5] yielded an IC50 [1, 6] of 28.3 nM, an IC50 ([5]; Hepatitis C virus, replicon 1A) of 0.0046 nM and an IC50 [3, 8] of 2.08 nM. For the same compound, the IC50 [4, 9] was 0.95 nM.

For `COC(=O)NC(C(=O)N1CCC[C@H]1c1ncc(-c2ccc3c(c2)cc2n3C(c3ccc(CC4CC4)s3)Oc3cc(-c4cnc([C@@H]5CCCN5C(=O)[C@@H](NC(=O)OC)C(C)C)[nH]4)cc(F)c3-2)[nH]1)C1CCOC(C)(C)C1` (single isomer, unassigned) [Compound 410], the IC50 ([1]; read-out: 1A Q30D IC50, HCV replicon 1A Q30D) was 0.106 nM, the IC50 ([2]; HCV replicon 1B) was 0.0033 nM and the IC50 [3, 10] was 0.0041 nM. The IC50 [4, 11] was 0.0034 nM.

Work on `COC(=O)N[C@H](C(=O)N1CCC[C@H]1c1ncc(-c2cc(F)c3c(c2)OC(c2ccc(C4CC4)s2)n2c-3cc3cc(-c4cnc([C@@H]5C[C@H]6C[C@H]6N5C(=O)[C@@H](NC(=O)OC)C5CCOCC5)[nH]4)ccc32)[nH]1)C(C)C` (stereo partly drawn) [Compound 653] yielded an IC50 [1, 12] of 0.00911 nM, an IC50 ([2]; Hepatitis C virus, HCV replicon 1B) of 0.00155 nM and an IC50 ([3]; Hepatitis C virus, read-out: 2B IC50, HCV replicon 2B) of 0.00144 nM. For the same compound, the IC50 ([4]; Hepatitis C virus, read-out: 1A Y93H IC50, HCV replicon 1A Y93H) was 0.00135 nM.

In the case of `COC(=O)NC(C(=O)N1CCC[C@H]1c1ncc(-c2ccc3c(c2)cc2n3C(c3ccc(C4CC4)s3)Oc3cc(-c4cnc([C@@H]5CCCN5C(=O)[C@@H](NC(=O)OC)C(C)C)[nH]4)cc(F)c3-2)[nH]1)C1CC(C)(C)OC(C)(C)C1` (single isomer, unassigned) [Compound 421], the IC50 [1, 12] is reported as 0.126 nM, the IC50 ([5]; HCV replicon 1A) is reported as 0.0023 nM and the IC50 [3, 10] is reported as 0.0184 nM. It also gave an IC50 [4, 11] of 0.0127 nM.

Compound `CCCc1ccc(C2Oc3cc(-c4cnc([C@@H]5CCCN5C(=O)[C@@H](NC(=O)OC)C(C)C)[nH]4)cc(F)c3-c3cc4cc(-c5cnc([C@@H]6CCCN6C(=O)[C@@H](NC(=O)OC)C(C)C)[nH]5)ccc4n32)s1` (stereo partly drawn) [Compound 34] has an IC50 [1, 6] of 0.16 nM, an IC50 ([5]; Hepatitis C virus, replicon 1A) of 0.0028 nM and an IC50 [3, 8] of 0.1 nM. The IC50 [4, 9] was 0.005 nM.

`COC(=O)NC(C(=O)N1CCCC1c1ncc(-c2cc(F)c3c(c2)OC(c2ccc(C4CC4)s2)n2c-3cc3cc(-c4cnc(C5CCCN5C(=O)C(NC(=O)OC)C5CCOC(C)C5)[nH]4)ccc32)[nH]1)C(C)C` (mixture of isomers) [Compound 849] showed an IC50 ([1]; HCV replicon 1A Q30D, read-out: 1A Q30D IC50) of 0.029 nM, an IC50 ([2]; HCV replicon 1B) of 0.0029 nM and an IC50 ([5]; HCV replicon 1A) of 0.0023 nM. The IC50 ([3]; HCV replicon 2B, read-out: 2B IC50) was 0.005 nM.

For `COC(=O)N[C@H](C(=O)N1[C@@H]2C[C@@H]2C[C@H]1c1ncc(-c2cc(F)c3c(c2)OC(c2ccc(C4CC4)s2)n2c-3cc3cc(-c4cnc([C@@H]5C[C@H]6C[C@H]6N5C(=O)[C@@H](NC(=O)OC)C(C)C)[nH]4)ccc32)[nH]1)C(C)C` (single isomer, unassigned) [Compound 88], the IC50 ([1]; read-out: 1A Q30D IC50, replicon 1AQ30D) was 0.3 nM, the IC50 ([2]; replicon 1B) was 0.0014 nM and the IC50 ([3]; read-out: 2B IC50, replicon 2B) was 0.59 nM. For the same compound, the IC50 [4, 7] was 0.007 nM.

`COC(=O)N[C@H](C(=O)N1CCC[C@H]1c1ncc(-c2cc(F)c3c(c2)OC(c2ccc(C(C)C)s2)n2c-3cc3cc(-c4cnc([C@@H]5CCCN5C(=O)[C@@H](NC(=O)OC)C5CCOCC5)[nH]4)ccc32)[nH]1)C(C)C` (single isomer, unassigned) [Compound 345] gave an IC50 [1, 6] of 0.0235 nM, an IC50 ([3]; read-out: 2B IC50, replicon 2B) of 0.0072 nM and an IC50 [4, 7] of 0.0012 nM.

Reference: US20160257697A1, “THIOPHENE-SUBSTITUTED TETRACYCLIC COMPOUNDS AND METHODS OFUSE THEREOF FOR THE TREATMENT OF VIRAL DISEASES” (priority 2013, published 2016)
